Experimental data: patent US10442808B2, “Pyrazolo pyrimidine derivatives and their use as MALT1 inhbitors” (NOVARTIS AG, priority 2014, dated 2019)

Test system: IL2 promoter
Assay: Human IL2 promoter reporter gene assay (RGA) in Jurkat cells
Type: cell-based
Conditions: […], heading: IL2 reporter gene assay IC50, anti-CD28 mAb + PMA stimulation 5.5 h
Experimental: Human IL2 Promoter Reporter Gene Assay (RGA) in Jurkat Cells
The transfected Jurkat clone K22 290_H23 was propagated in RPMI 1640 supplemented with 10% heat inactivated fetal calf serum, 50 μM 2-mercaptoethanol and 1 mg/ml Geneticin. The cell concentration should not exceed 1×10e6/ml during culturing. The cells should not exceed passage 30. Prior to the assay the cells were washed and prepared to the concentration of 2×10e6 cells/ml.
Compound dilutions were made as 2×-concentrated solutions then diluted ½ by addition to cells. Two hundred and fifty μl of compound dilution and 250 μl of cells were mixed together in wells of a 96-deep well plate. Cells/compounds premix were incubated 30 min at 37° C. and 5% CO2 directly in the deep well plate.
After pre-incubation of cells with compounds, cells were stimulated with anti-CD28 mAb (clone 15E8) at 3 μg/ml+PMA at 1 μg/ml. Both co-stimulants were diluted in culture medium at a 10×-concentrated solution. 10 μl of co-stimulants were pipetted into the white 96-well plates and 100 μl of cell/compound mix was immediately added in duplicates. The cells were stimulated for 5.5 h at 37° C. and 5% CO2.
After cell stimulation, 50 μl of BriteLitePlus reagent (Perkin Elmer) was added to each well and the bioluminescence was measured with a Wallac EnVision reader (Perkin Elmer).

| Compound | IC50 |
| --- | --- |
| COC[C@@H](C)c1c(NC(=O)Nc2cnc(-n3nccn3)c(C(F)(F)F)c2)cnc2cc(Cl)nn12 [Example 110, (S)-1-(6-(2H-1,2,3-triazol-2-yl)-5-(trifluoromethyl)pyridin-3-yl)-3-(2-chloro-7-(1-methoxypropan-2-yl)pyrazolo[1,5-a]pyrimidin-6-yl)urea] | 0.041 µM |
| Cc1c(NC(=O)Nc2cnc(-n3nccn3)c(Cl)c2)cnc2cc(Cl)nn12 [Example 62, 1-(5-chloro-6-(2H-1,2,3-triazol-2-yl)pyridin-3-yl)-3-(2-chloro-7-methylpyrazolo[1,5-a]pyrimidin-6-yl)urea] | 0.14 µM |
| Cc1ncn(-c2ccc(NC(=O)Nc3cnc4cc(Cl)nn4c3C(C)C)cc2C#N)n1 [Example 19, 1-(2-chloro-7-isopropylpyrazolo[1,5-a]pyrimidin-6-yl)-3-(3-cyano-4-(3-methyl-1H-1,2,4-triazol-1-yl)phenyl)urea] | 0.104 µM |
| CO[C@H](C)c1c(NC(=O)Nc2ccnc(C(F)(F)F)c2)cnc2cc(Cl)nn12 [Example 47, (R)-1-(2-chloro-7-(1-methoxyethyl)pyrazolo [1,5-a]pyrimidin-6-yl)-3-(2-(trifluoromethyl)pyridin-4-yl)urea] | 0.094 µM |
| CO[C@@H](C)c1c(NC(=O)Nc2cnc(-n3nccn3)c(Cl)c2)cnc2cc(F)nn12 [Example 95, (S)-1-(5-chloro-6-(2H-1,2,3-triazol-2-yl)pyridin-3-yl)-3-(2-fluoro-7-(1-methoxyethyl)pyrazolo [1,5-a]pyrimidin-6-yl)urea] | 0.06 µM |
| CC(C)c1c(NC(=O)Nc2cc(C(F)(F)F)ncc2-n2nccn2)cnc2cc(Cl)nn12 [Example 112, 1-(5-(2H-1,2,3-triazol-2-yl)-2-(trifluoromethyl)pyridin-4-yl)-3-(2-chloro-7-isopropylpyrazolo[1,5-a]pyrimidin-6-yl)urea] | 0.058 µM |
| COCC1(c2c(NC(=O)Nc3cnc(-n4nccn4)c(Cl)c3)cnc3cc(Cl)nn23)CC1 [Example 76, 1-(5-chloro-6-(2H-1,2,3-triazol-2-yl)pyridin-3-yl)-3-(2-chloro-7-(1-(methoxymethyl)cyclopropyl)pyrazolo[1,5-a]pyrimidin-6-yl)urea] | 0.047 µM |
| CC(C)c1c(NC(=O)Nc2cnc(-n3nccn3)c(Cl)c2)cnc2cc(Cl)nn12 [Example 21, 1-(5-chloro-6-(2H-1,2,3-triazol-2-yl)pyridin-3-yl)-3-(2-chloro-7-isopropylpyrazolo[1,5-a]pyrimidin-6-yl)urea] | 0.307 µM |
| CO[C@H](C)CO[C@@H](C)c1c(NC(=O)Nc2cnc(-n3nccn3)c(Cl)c2)cnc2cc(Cl)nn12 [Example 85, 1-(5-chloro-6-(2H-1,2,3-triazol-2-yl)pyridin-3-yl)-3-(2-chloro-7-((S)-1-((R)-2 methoxypropoxy)ethyl)pyrazolo[1,5-a]pyrimidin-6-yl)urea] | 0.068 µM |
| COCC1(c2c(NC(=O)Nc3cnc(-n4nccn4)c(Cl)c3)cnc3cc(C)nn23)CC1 [Example 78, 1-(5-chloro-6-(2H-1,2,3-triazol-2-yl)pyridin-3-yl)-3-(7-(1-(methoxymethyl)cyclopropyl)-2-methylpyrazolo[1,5-a]pyrimidin-6-yl)urea] | 0.927 µM |

Continued, values first:

| IC50 | Compound |
| --- | --- |
| 0.266 µM | O=C(Nc1cnc(-n2nccn2)c(C(F)(F)F)c1)Nc1cnc2cc(Cl)nn2c1C1CCCO1 (stereo not drawn) [Example 54, 1-(6-(2H-1,2,3-triazol-2-yl)-5-(trifluoromethyl)pyridin-3-yl)-3-(2-chloro-7-(tetrahydrofuran-2-yl)pyrazolo[1,5-a]pyrimidin-6-yl)urea] |
| 0.207 µM | CC1(c2c(NC(=O)Nc3cnc(-n4nccn4)c(Cl)c3)cnc3cc(Cl)nn23)CC1 [Example 16, 1-(5-chloro-6-(2H-1,2,3-triazol-2-yl)pyridin-3-yl)-3-(2-chloro-7-(1-methylcyclopropyl)pyrazolo[1,5-a]pyrimidin-6-yl)urea] |
| 0.043 µM | CC1(c2c(NC(=O)Nc3ccnc(C(F)(F)F)c3)cnc3cc(Cl)nn23)CCCO1 (stereo not drawn) [Example 36, 1-(2-chloro-7-(2-methyltetrahydrofuran-2-yl)pyrazolo[1,5-a]pyrimidin-6-yl)-3-(2-(trifluoromethyl)pyridin-4-yl)urea] |
| 0.267 µM | COCC1(c2c(NC(=O)Nc3ccnc(C(F)(F)F)c3)cnc3cc(Cl)nn23)CCC1 [Example 51, 1-(2-chloro-7-(1-(methoxymethyl)cyclobutyl)pyrazolo[1,5-a]pyrimidin-6-yl)-3-(2-(trifluoromethyl)pyridin-4-yl)urea] |
| 0.033 µM | CO[C@@H](C)c1c(NC(=O)Nc2ccnc(C(F)(F)F)c2)cnc2cc(F)nn12 [Example 7, (S)-1-(2-fluoro-7-(1-methoxyethyl)pyrazolo[1,5-a]pyrimidin-6-yl)-3-(2-(trifluoromethyl)pyridin-4-yl)urea] |
| 0.013 µM | CN1CCOCC1Cc1c(NC(=O)Nc2cnc(-n3nccn3)c(Cl)c2)cnc2cc(Cl)nn12 (stereo not drawn) [Example 83, 1-(5-chloro-6-(2H-1,2,3-triazol-2-yl)pyridin-3-yl)-3-(2-chloro-7-((4-methylmorpholin-3-yl)methyl)pyrazolo[1,5-a]pyrimidin-6-yl)urea] |
| 0.041 µM | COc1ncc(NC(=O)Nc2cnc3cc(Cl)nn3c2C2CCC(C)O2)cc1Cl (stereo not drawn) [Example 87, 1-(5-chloro-6-methoxypyridin-3-yl)-3-(2-chloro-7-(5-methyltetrahydrofuran-2-yl)pyrazolo[1,5-a]pyrimidin-6-yl)urea] |
| 0.206 µM | COc1ncc(NC(=O)Nc2cnc3cc(Cl)nn3c2-c2ccncc2)cc1Cl [Example 69, 1-(5-chloro-6-methoxypyridin-3-yl)-3-(2-chloro-7-(pyridin-4-yl)pyrazolo[1,5-a]pyrimidin-6-yl)urea] |
| 0.218 µM | COCCO[C@@H](C)c1c(NC(=O)Nc2cnc(OC(F)F)c(Cl)c2)cnc2cc(Cl)nn12 [Example 97, (S)-1-(5-chloro-6-(difluoromethoxy)pyridin-3-yl)-3-(2-chloro-7-(1-(2-methoxyethoxy)ethyl)pyrazolo[1,5-a]pyrimidin-6-yl)urea] |
| 0.019 µM | COc1ncc(NC(=O)Nc2cnc3cc(Cl)nn3c2[C@H](C)OC)cc1Cl [Example 9, (S)-1-(5-chloro-6-methoxypyridin-3-yl)-3-(2-chloro-7-(1-methoxyethyl)pyrazolo [1,5-a]pyrimidin-6-yl)urea] |
| 0.157 µM | COCC(C)(OC)c1c(NC(=O)Nc2cnc(-n3nccn3)c(Cl)c2)cnc2cc(Cl)nn12 (stereo not drawn) [Example 81, 1-(5-chloro-6-(2H-1,2,3-triazol-2-yl)pyridin-3-yl)-3-(2-chloro-7-(1,2-dimethoxypropan-2-yl)pyrazolo[1,5-a]pyrimidin-6-yl)urea] |
| 0.095 µM | COC(c1ccccc1)c1c(NC(=O)Nc2cnc(-n3nccn3)c(Cl)c2)cnc2cc(Cl)nn12 (stereo not drawn) [Example 49, 1-(5-chloro-6-(2H-1,2,3-triazol-2-yl)pyridin-3-yl)-3-(2-chloro-7-(methoxy(phenyl)methyl)pyrazolo[1,5-a]pyrimidin-6-yl)urea] |
| 0.089 µM | COCC1(c2c(NC(=O)Nc3ccnc(C(F)(F)F)c3)cnc3cc(C)nn23)CC1 [Example 79, 1-(7-(1-(methoxymethyl)cyclopropyl)-2-methylpyrazolo[1,5-a]pyrimidin-6-yl)-3-(2-(trifluoromethyl)pyridin-4-yl)urea] |
| 0.049 µM | CN1CCCC[C@H]1c1c(NC(=O)Nc2cnc(-n3nccn3)c(Cl)c2)cnc2cc(Cl)nn12 [Example 84, (S)-1-(5-chloro-6-(2H-1,2,3-triazol-2-yl)pyridin-3-yl)-3-(2-chloro-7-(1-methylpiperidin-2-yl)pyrazolo[1,5-a]pyrimidin-6-yl)urea] |
